Reference: ChEMBL document CHEMBL4138146, “A Schmidt rearrangement-mediated synthesis of novel tetrahydro-benzo[1,4]diazepin-5-ones as potential anticancer and antiprotozoal agents” (Eur J Med Chem, 2017)

Columns and labels:
Type in all cases: functional
HT-29 = experiment: Growth inhibition of human HT-29 cells assessed as cell growth at 10 uM incubated for 48 hrs by sulforhodamine B assay relative to control; settings: HT-29, 48 h, read-out: Activity
NCI/ADR-RES = experiment: Growth inhibition of human NCI/ADR-RES cells assessed as cell growth at 10 uM incubated for 48 hrs by sulforhodamine B assay relative to control; settings: read-out: Activity
A498 = experiment: Growth inhibition of human A498 cells assessed as cell growth at 10 uM incubated for 48 hrs by sulforhodamine B assay relative to control; settings: A498, 48 h, read-out: Activity
SK-MEL-2 = experiment: Growth inhibition of human SK-MEL-2 cells assessed as cell growth at 10 uM incubated for 48 hrs by sulforhodamine B assay relative to control; settings: SK-MEL-2, 48 h, read-out: Activity
SF-539 = experiment: Growth inhibition of human SF539 cells assessed as cell growth at 10 uM incubated for 48 hrs by sulforhodamine B assay relative to control; settings: SF-539, 48 h, read-out: Activity
SNB-75 = experiment: Growth inhibition of human SNB75 cells assessed as cell growth at 10 uM incubated for 48 hrs by sulforhodamine B assay relative to control; settings: SNB-75, 48 h, read-out: Activity
COLO 205 = experiment: Growth inhibition of human COLO205 cells assessed as cell growth at 10 uM incubated for 48 hrs by sulforhodamine B assay relative to control; settings: COLO 205, 48 h, read-out: Activity
786-0 = experiment: Growth inhibition of human 786-0 cells assessed as cell growth at 10 uM incubated for 48 hrs by sulforhodamine B assay relative to control; settings: 786-0, 48 h, read-out: Activity
OVCAR-4 = experiment: Growth inhibition of human OVCAR4 cells assessed as cell growth at 10 uM incubated for 48 hrs by sulforhodamine B assay relative to control; settings: OVCAR-4, 48 h, read-out: Activity
U-251 = experiment: Growth inhibition of human U251 cells assessed as cell growth at 10 uM incubated for 48 hrs by sulforhodamine B assay relative to control; settings: U-251, 48 h, read-out: Activity
TK-10 = experiment: Growth inhibition of human TK10 cells assessed as cell growth at 10 uM incubated for 48 hrs by sulforhodamine B assay relative to control; settings: TK-10, 48 h, read-out: Activity
CAKI-1 = experiment: Growth inhibition of human Caki1 cells assessed as cell growth at 10 uM incubated for 48 hrs by sulforhodamine B assay relative to control; settings: CAKI-1, 48 h, read-out: Activity
MDA-MB-231 = experiment: Growth inhibition of human MDA-MB-231 cells assessed as cell growth at 10 uM incubated for 48 hrs by sulforhodamine B assay relative to control; settings: MDA-MB-231, 48 h, read-out: Activity
NCI-H460 = experiment: Growth inhibition of human NCI-H460 cells assessed as cell growth at 10 uM incubated for 48 hrs by sulforhodamine B assay relative to control; settings: NCI-H460, 48 h, read-out: Activity
OVCAR-8 = experiment: Growth inhibition of human OVCAR8 cells assessed as cell growth at 10 uM incubated for 48 hrs by sulforhodamine B assay relative to control; settings: OVCAR-8, 48 h, read-out: Activity
PC-3 = experiment: Growth inhibition of human PC3 cells assessed as cell growth at 10 uM incubated for 48 hrs by sulforhodamine B assay relative to control; settings: PC-3, 48 h, read-out: Activity
LOX IMVI = experiment: Growth inhibition of human LOXIMVI cells assessed as cell growth at 10 uM incubated for 48 hrs by sulforhodamine B assay relative to control; settings: read-out: Activity
ACHN = experiment: Growth inhibition of human ACHN cells assessed as cell growth at 10 uM incubated for 48 hrs by sulforhodamine B assay relative to control; settings: read-out: Activity
BT-549 = experiment: Growth inhibition of human BT549 cells assessed as cell growth at 10 uM incubated for 48 hrs by sulforhodamine B assay relative to control; settings: BT-549, 48 h, read-out: Activity
SW-620 = experiment: Growth inhibition of human SW620 cells assessed as cell growth at 10 uM incubated for 48 hrs by sulforhodamine B assay relative to control; settings: SW-620, 48 h, read-out: Activity
Hs-578T = experiment: Growth inhibition of human Hs 578T cells assessed as cell growth at 10 uM incubated for 48 hrs by sulforhodamine B assay relative to control; settings: read-out: Activity
UACC-62 = experiment: Growth inhibition of human UACC62 cells assessed as cell growth at 10 uM incubated for 48 hrs by sulforhodamine B assay relative to control; settings: UACC-62, 48 h, read-out: Activity
SK-MEL-28 = experiment: Growth inhibition of human SK-MEL-28 cells assessed as cell growth at 10 uM incubated for 48 hrs by sulforhodamine B assay relative to control; settings: SK-MEL-28, 48 h, read-out: Activity
NCI-H522 = experiment: Growth inhibition of human NCI-H522 cells assessed as cell growth at 10 uM incubated for 48 hrs by sulforhodamine B assay relative to control; settings: NCI-H522, 48 h, read-out: Activity
KM12 = experiment: Growth inhibition of human KM12 cells assessed as cell growth at 10 uM incubated for 48 hrs by sulforhodamine B assay relative to control; settings: KM12, 48 h, read-out: Activity
RPMI-8226 = experiment: Growth inhibition of human RPMI8226 cells assessed as cell growth at 10 uM incubated for 48 hrs by sulforhodamine B assay relative to control; settings: RPMI-8226, 48 h, read-out: Activity
NCI-H23 = experiment: Growth inhibition of human NCI-H23 cells assessed as cell growth at 10 uM incubated for 48 hrs by sulforhodamine B assay relative to control; settings: NCI-H23, 48 h, read-out: Activity
SK-OV-3 = experiment: Growth inhibition of human SKOV3 cells assessed as cell growth at 10 uM incubated for 48 hrs by sulforhodamine B assay relative to control; settings: SK-OV-3, 48 h, read-out: Activity
A549 = experiment: Growth inhibition of human A549/ATCC cells assessed as cell growth at 10 uM incubated for 48 hrs by sulforhodamine B assay relative to control; settings: A549, 48 h, read-out: Activity
MDA-MB-435 = experiment: Growth inhibition of human MDA-MB-435 cells assessed as cell growth at 10 uM incubated for 48 hrs by sulforhodamine B assay relative to control; settings: MDA-MB-435, 48 h, read-out: Activity
Malme-3M = experiment: Growth inhibition of human MALME-3M cells assessed as cell growth at 10 uM incubated for 48 hrs by sulforhodamine B assay relative to control; settings: read-out: Activity
SK-MEL-5 = experiment: Growth inhibition of human SK-MEL-5 cells assessed as cell growth at 10 uM incubated for 48 hrs by sulforhodamine B assay relative to control; settings: SK-MEL-5, 48 h, read-out: Activity
OVCAR-3 = experiment: Growth inhibition of human OVCAR3 cells assessed as cell growth at 10 uM incubated for 48 hrs by sulforhodamine B assay relative to control; settings: OVCAR-3, 48 h, read-out: Activity

`Cc1ccc2[nH]c(=O)c(C3CNC(=O)c4ccccc4N3)cc2c1` (centres undefined) gave a growth at 10 µM (HT-29) of 104%, a growth at 10 µM (NCI/ADR-RES) of 108% and a growth at 10 µM (A498) of 93%. For the same compound, the growth at 10 µM (SK-MEL-2) was 110%, the growth at 10 µM (SF-539) was 96.5% and the growth at 10 µM (SNB-75) was 97.4%. For the same compound, the growth at 10 µM (COLO 205) was 107%, the growth at 10 µM (786-0) was 103% and the growth at 10 µM (OVCAR-4) was 108%. For the same compound, the growth at 10 µM (U-251) was 99.5%, the growth at 10 µM (TK-10) was 104% and the growth at 10 µM (CAKI-1) was 92.1%. For the same compound, the growth at 10 µM (MDA-MB-231) was 114%, the growth at 10 µM (NCI-H460) was 106% and the growth at 10 µM (OVCAR-8) was 113%. It also gave a growth at 10 µM (PC-3) of 98.5%, a growth at 10 µM (LOX IMVI) of 96.8% and a growth at 10 µM (ACHN) of 103%. The growth at 10 µM (BT-549) was 99.4%, the growth at 10 µM (SW-620) was 106% and the growth at 10 µM (Hs-578T) was 105%. The growth at 10 µM (UACC-62) was 98.4%, the growth at 10 µM (SK-MEL-28) was 108% and the growth at 10 µM (NCI-H522) was 93.6%. It also gave a growth at 10 µM (KM12) of 102%, a growth at 10 µM (RPMI-8226) of 102% and a growth at 10 µM (NCI-H23) of 97.1%. It also gave a growth at 10 µM (SK-OV-3) of 110%, a growth at 10 µM (A549) of 95.7% and a growth at 10 µM (MDA-MB-435) of 108%. For the same compound, the growth at 10 µM (Malme-3M) was 109%, the growth at 10 µM (SK-MEL-5) was 98.6% and the growth at 10 µM (OVCAR-3) was 107%.
`O=C1NCC(c2cc3ccc(Cl)cc3[nH]c2=O)Nc2ccccc21` (centres undefined) gave a growth at 10 µM (HT-29) of 72.2%, a growth at 10 µM (NCI/ADR-RES) of 99.4% and a growth at 10 µM (A498) of 112%. It also gave a growth at 10 µM (SK-MEL-2) of 103%, a growth at 10 µM (SF-539) of 95% and a growth at 10 µM (SNB-75) of 84.3%. It also gave a growth at 10 µM (COLO 205) of 94.9%, a growth at 10 µM (786-0) of 99.7% and a growth at 10 µM (OVCAR-4) of 94%. For the same compound, the growth at 10 µM (U-251) was 88.9%, the growth at 10 µM (TK-10) was 83% and the growth at 10 µM (CAKI-1) was 101%. The growth at 10 µM (MDA-MB-231) was 118%, the growth at 10 µM (NCI-H460) was 104% and the growth at 10 µM (OVCAR-8) was 97.8%. It also gave a growth at 10 µM (PC-3) of 87.1%, a growth at 10 µM (LOX IMVI) of 96.3% and a growth at 10 µM (ACHN) of 101%. It also gave a growth at 10 µM (BT-549) of 99.9%, a growth at 10 µM (SW-620) of 107% and a growth at 10 µM (Hs-578T) of 113%. For the same compound, the growth at 10 µM (UACC-62) was 106%, the growth at 10 µM (SK-MEL-28) was 105% and the growth at 10 µM (NCI-H522) was 63.8%. For the same compound, the growth at 10 µM (KM12) was 103%, the growth at 10 µM (RPMI-8226) was 119% and the growth at 10 µM (NCI-H23) was 94%. It also gave a growth at 10 µM (SK-OV-3) of 77.8%, a growth at 10 µM (A549) of 73.9% and a growth at 10 µM (MDA-MB-435) of 104%. For the same compound, the growth at 10 µM (Malme-3M) was 93.4%, the growth at 10 µM (SK-MEL-5) was 102% and the growth at 10 µM (OVCAR-3) was 109%.
`O=C1CC(c2cc3ccc4ccccc4c3[nH]c2=O)Nc2ccccc21` (centres undefined) was tested, and the growth at 10 µM (HT-29) was 99.1%, the growth at 10 µM (NCI/ADR-RES) was 108% and the growth at 10 µM (A498) was 115%. It also gave a growth at 10 µM (SK-MEL-2) of 96.2%, a growth at 10 µM (SF-539) of 82.2% and a growth at 10 µM (SNB-75) of 102%. It also gave a growth at 10 µM (COLO 205) of 86.7%, a growth at 10 µM (786-0) of 95.6% and a growth at 10 µM (OVCAR-4) of 87.8%. The growth at 10 µM (U-251) was 87.6%, the growth at 10 µM (TK-10) was 116% and the growth at 10 µM (CAKI-1) was 86%. The growth at 10 µM (MDA-MB-231) was 69.3%, the growth at 10 µM (NCI-H460) was 81.1% and the growth at 10 µM (OVCAR-8) was 110%. For the same compound, the growth at 10 µM (PC-3) was 102%, the growth at 10 µM (LOX IMVI) was 84% and the growth at 10 µM (ACHN) was 106%. For the same compound, the growth at 10 µM (BT-549) was 69.4%, the growth at 10 µM (SW-620) was 96% and the growth at 10 µM (Hs-578T) was 77.3%. It also gave a growth at 10 µM (UACC-62) of 101%, a growth at 10 µM (SK-MEL-28) of 106% and a growth at 10 µM (NCI-H522) of 89.2%. The growth at 10 µM (KM12) was 94.5%, the growth at 10 µM (RPMI-8226) was 99.7% and the growth at 10 µM (NCI-H23) was 93.6%. For the same compound, the growth at 10 µM (SK-OV-3) was 98.8%, the growth at 10 µM (A549) was 92.4% and the growth at 10 µM (MDA-MB-435) was 109%. The growth at 10 µM (Malme-3M) was 84.7%, the growth at 10 µM (SK-MEL-5) was 98.9% and the growth at 10 µM (OVCAR-3) was 115%.
